Test results reported in US6380158B1, “Motilin homologs” (ZymoGenetics, Inc., priority 1997, dated 2002).

Assays:
[1] = system: antral portion of the stomach; assay: Rat stomach contraction in vivo: topical application between two transducing crystals on the antrum; parameters: species or system Sprague-Dawley rats
Excerpt: Two male Sprague-Dawley rats, approximately 12 weeks old (Harlan, Indianapolis, Ind.) were anesthetized with urethane and their stomachs were exposed through a small abdominal incision. Two 2.4 mm transducing crystals (Sonometrics, Ontario, Canada) were placed on the antral portion of the stomach such that circular contractions could be monitored as a change in the distance between the two crystals. The crystals were attached with VETBOND TISSUE ADHESIVE (3M, St. Paul, Minn.).
The amplitude of the NE-induced decrease was approximately 50% of the acetylcholine-induced increase in distance. Both responses were transient.
A negative control of 10 μl of phosphate buffer solution (PBS) applied topically between the crystals had no effect.
A 14 amino acid zsig33 peptide (from amino acid residue 24 (Gly) to amino acid residue 37 (Gln) of SEQ ID NO: 2) was dissolved in PBS) and 10 μl was applied topically for a final concentration of 1 μg, 10 μg or 100 μg.

[2] = system: ob/ob mice; assay: Oral glucose challenge in ob/ob mice after oral gavage of the peptide (serum glucose levels); assay type: in vivo; conditions: 100 μg orally, 30 minutes prior to oral glucose challenge
Protocol: Eight female ob/ob mice, approximately 6 weeks […] old (Jackson Labs, Bar Harbor, Me.) were adapted to a 4 hour daily feeding schedule for two weeks. After two weeks on the feeding schedule, the mice were give 100 μg of a 14 amino acid amino zsig33 peptide (from amino acid residue 24 (Gly) to amino acid residue 37 (Gln) of SEQ ID NO: 2) in 100 μl sterile 0.1% BSA by oral gavage, immediately after their eating period (post-prandially). Thirty minutes later, the mice were challenged orally with a 0.5 ml volume of 25% glucose. Retroorbital bleeds were done to determine serum glucose levels. Blood was drawn prior to zsig33 dosing, prior to oral glucose challenge, and at 1, 2, 4, and 20 hours following the glucose challenge.

[3] = 10 μl of 1 μM applied topically, anesthetized rats

Row | Molecule | amplitude of the NE-induced decrease relative to the acetylcholine-induced increase in distance [1, 3] | change in the distance between the two crystals (circular contractions of the stomach) [1, 3] | change in crystal distance (stomach contractions) ([1]; 1 μg in 10 μl PBS applied topically) | change in crystal distance (rate and amplitude of contractions) ([1]; 10 μg in 10 μl PBS applied topically) | change in crystal distance (rate and amplitude of contractions) ([1]; 100 μg in 10 μl PBS applied topically) | post-prandial glucose absorption (serum glucose levels) [2]
1 | NC[C@H](O)c1ccc(O)c(O)c1 [norepinephrine, reference compound] | approximately 50% | reduction in the distance between the two crystals |  |  |  | 
2 | zsig33 peptide: 14 amino acid zsig33 peptide, from amino acid residue 24 (Gly) to amino acid residue 37 (Gln) of SEQ ID NO: 2 (GSSFLSPEHQRVQQ) |  |  | sustained, rhythmic increase and decrease in crystal distance | enhanced responses in both rate and amplitude | enhanced responses in both rate and amplitude | enhanced post-prandial glucose absorption
